In ChEMBL document CHEMBL1667731, “N-hydroxypyridones, phenylhydrazones, and a quinazolinone from Isaria farinosa” (J Nat Prod, 2011):

How the values were obtained:
Staphylococcus aureus = assay: Antibacterial activity against Staphylococcus aureus CGMCC 1.2465 after 24 hrs; conditions: CGMCC 1.2465, 24 h
Streptococcus pneumoniae = assay: Antibacterial activity against Streptococcus pneumoniae CGMCC 1.1692 after 24 hrs; type: functional, organism-based; conditions: CGMCC 1.1692, 24 h
A549 = assay: Cytotoxicity against human A549 cells assessed as inhibition of cell viability by MTT assay; type: functional, cell-based
Candida albicans = assay: Antifungal activity against Candida albicans CGMCC 2.2086 after 24 hrs; type: functional, organism-based; conditions: CGMCC 2.2086, 24 h

| Compound | IC50 (Staphylococcus aureus) [µM] | IC50 (Streptococcus pneumoniae) [µM] | IC50 (A549; Homo sapiens, A549) [µM] | IC50 (A549; a549) [µM] | IC50 (Candida albicans) [µM] |
| --- | --- | --- | --- | --- | --- |
| O=c1[nH]c(Cc2ccc(O)cc2)nc2ccccc12 | > 150 | > 150 | > 120 | > 120 | – |
| C/C(=N\Nc1ccccc1C(=O)O)C(=O)NCC(=O)O [FARYLHYDRAZONE A] | > 150 | > 150 | > 120 | > 120 | – |
| CC[C@@H](C)C[C@@H](C)/C=C(C)/C=C/C=C/C(=O)c1c(O)c(C2=CC[C@@H](O)CC2)cn(O)c1=O [MILITARINONE E] | > 150 | > 150 | 1.59 | – | > 150 |
| CC[C@@H](C)C[C@@H](C)/C=C(C)/C=C/C=C/C(=O)c1c(O)c(-c2ccc(O)cc2)c[nH]c1=O [MILITARINONE B] | 2.11 | 2.6 | > 120 | – | 43.4 |
| C[C@@H]1[C@H](O)[C@@H](C)/C=C/C=C/C=C/C=C/C=C/C=C/C=C/[C@H](O[C@@H]2O[C@H](C)[C@@H](O)[C@H](N)[C@@H]2O)C[C@@H]2O[C@](O)(C[C@@H](O)C[C@@H](O)[C@H](O)CC[C@@H](O)C[C@@H](O)CC(=O)O[C@H]1C)C[C@H](O)[C@H]2C(=O)O [AMPHOTERICIN B] | – | – | – | – | 0.72 |
| C/C(=N\Nc1ccccc1C(=O)O)C(=O)O [FARYLHYDRAZONE B] | > 150 | > 150 | > 120 | > 120 | – |
| CC1(C)S[C@@H]2[C@H](NC(=O)[C@H](N)c3ccccc3)C(=O)N2[C@H]1C(=O)O [AMPICILLIN] | 0.06 | 1.08 | – | – | – |
| CC[C@@H](C)C[C@@H](C)/C=C(C)/C=C/C=C/C(=O)c1c(O)c([C@]23CC[C@H](CC2)O3)cn(O)c1=O [MILITARINONE F] | > 150 | > 150 | > 120 | > 120 | – |
| CC[C@@H](C)C[C@@H](C)/C=C(C)/C=C/C=C/C(=O)c1c(O)c([C@]2(O)CC[C@@H](O)CC2)cn(O)c1=O [MILITARINONE A] | > 150 | > 150 | 1.75 | – | > 150 |
